Results from US10745693B2, “Methods of designing programmable inducible promoters” (WISCONSIN ALUMNI RESEARCH FOUNDATION, priority 2017, dated 2020).

Test system: PmeR
Assay: Induction assay of PmeR-enriched promoter library driving GFP in E. coli DH10B (flow cytometer)
Format: cell-based, Pseudomonas syringae
Details: 300 uM naringenin, over-night growth, E. coli DH10B population repressed by PmeR
Excerpt: In this example, the allosteric transcription factor was PmeR (repressor) and the inducer molecule was naringenin.
The post in vitro enrichment of polynucleotides (with PmeR protein) was cloned into a vector to drive the expression of a green fluorescent protein using the Golden Gate assembly method. Following the transformation and over-night growth in E. coli DH10B, the fluorescent intensity distribution was profiled using a flow cytometer with 488 nm laser and 510 (25) nm filter. The delivery of the transcription repressor was through a second vector containing constitutively expressing PmeR protein. The fluorescent intensity distribution shift was captured with a flow cytometer after over-night growth. A decrease of overall fluorescent intensity was observed. The induction assay was conducted with the addition of 300 uM naringenin to the previous E. coli population with decreased fluorescence.

**Q.** With `O=C1C[C@@H](c2ccc(O)cc2)Oc2cc(O)cc(O)c21` [naringenin] as the compound, how does the “Change of fluorescent intensity distribution on induction” value read?
**A.** overall increase in fluorescent intensity
